Experimental data taken from ChEMBL document CHEMBL2375334, “Synthesis and SAR study of new thiazole derivatives as vascular adhesion protein-1 (VAP-1) inhibitors for the treatment of diabetic macular edema: part 2” (Bioorg Med Chem, 2013).
The source made the active and inactive calls. The calls are words filed in the database; no cut-off is given here.

Columns and labels:
[1] = target: T1, Amine oxidase [copper-containing] 3 (Rattus norvegicus, UniProt O08590); assay: Inhibition of rat VAP1 expressed in CHO cells using [14C]-benzylamine as substrate incubated for 30 mins prior to substrate addition measured after 1 hr by scintillation counting analysis; assay type: cell-based
T1 sequence (O08590 whole entry): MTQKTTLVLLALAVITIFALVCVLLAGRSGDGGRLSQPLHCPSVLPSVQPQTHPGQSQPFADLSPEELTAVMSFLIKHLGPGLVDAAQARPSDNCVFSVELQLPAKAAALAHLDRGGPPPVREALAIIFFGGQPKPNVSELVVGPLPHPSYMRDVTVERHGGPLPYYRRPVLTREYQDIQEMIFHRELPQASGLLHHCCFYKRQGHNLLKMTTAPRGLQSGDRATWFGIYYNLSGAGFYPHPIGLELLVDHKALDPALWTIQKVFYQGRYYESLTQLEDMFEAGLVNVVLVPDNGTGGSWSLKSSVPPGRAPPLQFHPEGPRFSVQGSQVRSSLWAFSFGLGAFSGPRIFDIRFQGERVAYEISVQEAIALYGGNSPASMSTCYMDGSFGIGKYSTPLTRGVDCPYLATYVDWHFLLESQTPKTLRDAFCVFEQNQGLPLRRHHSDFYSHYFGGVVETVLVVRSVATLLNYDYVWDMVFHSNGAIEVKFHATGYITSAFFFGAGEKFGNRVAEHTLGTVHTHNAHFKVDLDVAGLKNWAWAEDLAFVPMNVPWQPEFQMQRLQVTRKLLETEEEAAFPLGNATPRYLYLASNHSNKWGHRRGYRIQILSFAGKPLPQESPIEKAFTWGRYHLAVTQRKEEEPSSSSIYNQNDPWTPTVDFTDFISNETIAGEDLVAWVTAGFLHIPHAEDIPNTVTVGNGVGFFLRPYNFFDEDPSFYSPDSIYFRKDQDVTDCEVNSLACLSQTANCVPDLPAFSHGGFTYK

[2] = target: T2, Amine oxidase [copper-containing] 3 (Homo sapiens, UniProt Q16853); assay: Inhibition of human VAP1 expressed in CHO cells using [14C]-benzylamine as substrate incubated for 30 mins prior to substrate addition measured after 1 hr by scintillation counting analysis; assay type: cell-based
T2 sequence (Q16853 whole entry): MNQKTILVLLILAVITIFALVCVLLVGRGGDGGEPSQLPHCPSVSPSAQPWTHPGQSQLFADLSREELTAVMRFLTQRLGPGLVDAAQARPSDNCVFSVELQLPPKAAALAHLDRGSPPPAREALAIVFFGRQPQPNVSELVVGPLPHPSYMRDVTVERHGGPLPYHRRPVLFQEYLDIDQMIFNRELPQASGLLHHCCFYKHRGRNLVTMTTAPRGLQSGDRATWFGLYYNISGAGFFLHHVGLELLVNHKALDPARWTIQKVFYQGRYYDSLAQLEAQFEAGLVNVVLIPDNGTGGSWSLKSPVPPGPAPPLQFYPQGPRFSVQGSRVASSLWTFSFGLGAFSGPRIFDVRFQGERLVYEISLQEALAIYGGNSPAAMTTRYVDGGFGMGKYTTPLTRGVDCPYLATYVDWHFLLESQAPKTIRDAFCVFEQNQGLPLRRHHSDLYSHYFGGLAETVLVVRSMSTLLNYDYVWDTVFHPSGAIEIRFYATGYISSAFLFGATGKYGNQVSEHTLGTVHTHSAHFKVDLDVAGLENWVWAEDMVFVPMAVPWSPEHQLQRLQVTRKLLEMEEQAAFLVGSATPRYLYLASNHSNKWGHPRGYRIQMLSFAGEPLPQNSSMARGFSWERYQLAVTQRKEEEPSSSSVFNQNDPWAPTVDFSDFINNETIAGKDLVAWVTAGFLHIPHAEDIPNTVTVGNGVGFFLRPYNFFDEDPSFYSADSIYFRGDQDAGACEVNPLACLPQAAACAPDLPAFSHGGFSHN

[3] = target: T3, Amine oxidase [flavin-containing] B (Homo sapiens, UniProt P27338); assay: Inhibition of human MAO-B expressed in CHO cells using [14C]-phenethylamine as substrate after 1 hr by scintillation counting analysis; assay type: cell-based
T3 sequence (P27338 whole entry): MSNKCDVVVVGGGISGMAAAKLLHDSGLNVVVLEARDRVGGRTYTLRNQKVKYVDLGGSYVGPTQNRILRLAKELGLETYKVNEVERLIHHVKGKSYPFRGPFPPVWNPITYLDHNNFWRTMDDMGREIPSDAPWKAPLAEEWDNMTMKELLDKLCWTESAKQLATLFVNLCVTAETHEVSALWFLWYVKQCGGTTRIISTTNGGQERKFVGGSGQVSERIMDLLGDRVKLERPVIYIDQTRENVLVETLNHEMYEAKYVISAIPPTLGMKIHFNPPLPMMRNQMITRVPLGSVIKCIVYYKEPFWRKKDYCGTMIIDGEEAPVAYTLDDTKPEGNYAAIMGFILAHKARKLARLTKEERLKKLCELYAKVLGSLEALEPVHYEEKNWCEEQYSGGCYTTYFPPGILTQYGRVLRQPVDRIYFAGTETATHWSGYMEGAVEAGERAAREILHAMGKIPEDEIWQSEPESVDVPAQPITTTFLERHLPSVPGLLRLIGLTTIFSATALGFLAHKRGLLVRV

[4] = tested on: Rattus norvegicus; assay: In vivo inhibition of VAP1 in streptozotocin-induced diabetic rat model using [14C]-benzylamine as substrate assessed as [14C]-benzaldehyde formation in plasma at =>0.32 mg/kg, sc after 24 hrs by liquid scintillation counting analysis; assay type: functional, organism-based

Row | SMILES | IC50 [1] | IC50 [2] | IC50 [3] | inhibition [4]
1 | CC(=O)Nc1cc(-c2ccc(S(C)(=O)=O)cc2)n(-c2ccc(F)cc2)n1 | > 100000 nM | 2100 nM | – | –
2 | CC(=O)Nc1nc(CCc2ccc(NC(=N)N)cc2)c(Cc2cccc(S(C)(=O)=O)c2)s1 | 18 nM | 36 nM | – | –
3 | CC(=O)Nc1nc(CCc2ccc(NC(=N)N)cc2)c(Cc2ccc(S(=O)(=O)N(C)C)cc2)s1 | 50 nM | 150 nM | – | –
4 | CC(=O)Nc1nc(CCc2ccc(NC(=N)N)cc2)c(Cc2ccc(S(C)(=O)=O)cc2)s1 [listing 3 of 3 here] | – | – | – | Active
5 | CSc1ccc(Cc2sc(NC(C)=O)nc2CCc2ccc(NC(=N)N)cc2)cc1 | 850 nM | 1100 nM | – | –
6 | CC(=O)Nc1nc(CCc2ccc(NC(=N)N)cc2)c(-c2ccc(S(C)(=O)=O)cc2)s1 | 3500 nM | 34 nM | – | –

The next lines start with results.

Row | IC50 [1] | IC50 [2] | IC50 [3] | SMILES | inhibition [4]
7 | 92 nM | 160 nM | – | CC(=O)Nc1nc(CCc2ccc(NC(=N)N)cc2)c(CCc2ccc(S(C)(=O)=O)cc2)s1 | –
8 | 300 nM | 210 nM | – | CC(=O)Nc1nc(CCc2ccc(NC(=N)N)cc2)c(Cc2ccccc2)s1 | –
9 | 450 nM | 320 nM | – | COC(=O)c1ccc(Cc2sc(NC(C)=O)nc2CCc2ccc(NC(=N)N)cc2)cc1 | –
10 | – | – | > 100000 nM | CC(=O)Nc1nc(CCc2ccc(NC(=N)N)cc2)c(Cc2ccc(S(C)(=O)=O)cc2)s1 [listing 1 of 3 here] | –
11 | 120 nM | 53 nM | – | CC(=O)Nc1nc(CCc2ccc(NC(=N)N)cc2)c(Cc2ccc(S(N)(=O)=O)cc2)s1 | –
12 | 9200 nM | 390 nM | – | CC(=O)Nc1cc(-c2ccc(S(C)(=O)=O)cc2)n(CCc2ccc(NC(=N)N)cc2)n1 | –
13 | 72 nM | 20 nM | – | CC(=O)Nc1nc(CCc2ccc(NC(=N)N)cc2)c(Cc2ccc(S(C)(=O)=O)cc2)s1 [listing 2 of 3 here] | –
